# Measured values taken from PMC6136390, “Coptisine-induced inhibition of Helicobacter pylori: elucidation of specific mechanisms by probing urease active site and its maturation process” (Journal of Enzyme Inhibition and Medicinal Chemistry, 2018).
# Legend:
# jack bean urease (JBU) = molecular target: T1, jack bean urease (JBU) (Canavalia ensiformis, UniProt P07374); experiment: Determination of urease inhibition type (Lineweaver-Burk plots); type: biochemical
# T1 construct: purchased Sigma Aldrich (Steineheim, Germany) type III (catalogue number not given)
# Experimental: (§1) Using the methods described above, the type of enzyme inhibition induced by coptisine was determined by examining changes in the Michaelis constant (KM) and maximum velocity (vmax) values from Lineweaver–Burk plots of 1/v versus 1/urea. The inhibition constant was determined using secondary plots of the apparent KM/vmax or 1/vmax versus the concentration of coptisine. The assays were performed in triplicate.
# H. pylori urease (HPU) = molecular target: T2, H. pylori urease (HPU) (Helicobacter pylori, UniProt P69996); experiment: as above; type: biochemical
# T2 construct: Crude HPU was obtained according to the method described by Matsubara et al; endogenous in cells; host or cells: cultured Helicobacter pylori (strain not specified)
# Experimental: as §1
# [1] = Lineweaver-Burk plots, 1.00, 2.00 or 4.00 mM Cop
# T2 sequence (P69996 whole entry): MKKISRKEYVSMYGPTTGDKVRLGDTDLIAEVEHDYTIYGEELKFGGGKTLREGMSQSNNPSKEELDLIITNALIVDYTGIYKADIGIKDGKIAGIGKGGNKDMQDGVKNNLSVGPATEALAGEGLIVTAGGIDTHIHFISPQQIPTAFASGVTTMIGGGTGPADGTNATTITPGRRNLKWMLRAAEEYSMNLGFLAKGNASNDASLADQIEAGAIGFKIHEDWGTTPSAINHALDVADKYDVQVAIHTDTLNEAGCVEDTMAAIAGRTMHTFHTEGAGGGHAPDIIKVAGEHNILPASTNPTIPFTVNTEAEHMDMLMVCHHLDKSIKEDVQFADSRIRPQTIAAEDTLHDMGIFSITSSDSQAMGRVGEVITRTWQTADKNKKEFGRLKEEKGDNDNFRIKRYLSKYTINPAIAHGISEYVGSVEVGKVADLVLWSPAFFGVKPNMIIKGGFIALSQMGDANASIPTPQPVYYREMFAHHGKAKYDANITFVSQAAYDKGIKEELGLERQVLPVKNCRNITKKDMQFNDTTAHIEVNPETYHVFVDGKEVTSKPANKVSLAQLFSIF
# T2 sequence (P14916 whole entry, further chain): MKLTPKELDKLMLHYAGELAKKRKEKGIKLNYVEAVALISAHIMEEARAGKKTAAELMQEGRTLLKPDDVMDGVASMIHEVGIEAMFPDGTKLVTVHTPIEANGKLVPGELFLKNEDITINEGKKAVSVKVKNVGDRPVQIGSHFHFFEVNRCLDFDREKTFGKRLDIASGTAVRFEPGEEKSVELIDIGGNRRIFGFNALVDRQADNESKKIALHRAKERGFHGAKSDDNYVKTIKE
# T1 sequence (P07374 whole entry, looked up): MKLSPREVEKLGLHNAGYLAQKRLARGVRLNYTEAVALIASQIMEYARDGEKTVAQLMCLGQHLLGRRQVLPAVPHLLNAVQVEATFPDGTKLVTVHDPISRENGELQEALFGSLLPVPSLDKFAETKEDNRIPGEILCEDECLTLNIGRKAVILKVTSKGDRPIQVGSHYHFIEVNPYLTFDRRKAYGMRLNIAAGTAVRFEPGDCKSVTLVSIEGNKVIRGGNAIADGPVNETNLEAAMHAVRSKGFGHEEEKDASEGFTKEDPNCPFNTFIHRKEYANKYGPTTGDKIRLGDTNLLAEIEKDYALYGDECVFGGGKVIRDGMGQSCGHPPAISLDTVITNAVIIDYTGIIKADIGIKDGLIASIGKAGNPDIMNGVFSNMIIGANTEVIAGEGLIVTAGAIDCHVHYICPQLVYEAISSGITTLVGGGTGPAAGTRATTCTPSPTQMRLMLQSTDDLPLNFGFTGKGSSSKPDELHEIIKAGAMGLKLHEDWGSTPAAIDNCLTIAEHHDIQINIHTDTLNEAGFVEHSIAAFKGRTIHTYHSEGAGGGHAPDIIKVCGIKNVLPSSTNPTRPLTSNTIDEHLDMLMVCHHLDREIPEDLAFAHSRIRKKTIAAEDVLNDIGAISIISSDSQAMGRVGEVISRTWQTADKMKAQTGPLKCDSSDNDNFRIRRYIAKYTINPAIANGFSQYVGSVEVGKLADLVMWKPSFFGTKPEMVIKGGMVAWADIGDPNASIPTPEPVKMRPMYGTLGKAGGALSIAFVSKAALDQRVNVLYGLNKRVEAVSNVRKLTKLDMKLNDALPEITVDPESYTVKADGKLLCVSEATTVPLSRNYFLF
smiles,measurement,setting,value
c1c2c(cc3c1OCO3)-c1cc3ccc4c(c3c[n+]1CC2)OCO4 [Coptisine],Ki,jack bean urease (JBU),170 µM
same,"inhibition type, JBU",jack bean urease (JBU); [1],non-competitively inhibits
same,"Kis, JBU",jack bean urease (JBU); from intercept versus Cop concentration,0.25 mM
same,Ki,H. pylori urease (HPU),50 µM
same,"inhibition type, HPU",H. pylori urease (HPU); [1],mixed-type inhibitor
same,"Kis (binding to the enzyme substrate complex), HPU",H. pylori urease (HPU); from vertical intercept versus inhibitor concentration,1.48 mM
